Patent EP1972623A1, “Arylpyridazines as fungicides” (Bayer CropScience AG, priority 2007, dated 2008)

Assay: logP determination via HPLC retention times (calibration with unbranched alkan-2-ones)
Format: physicochemical
Conditions: HPLC on reversed-phase C 18 columns per EEC Directive 79/831 Annex V.A8; acidic mobile phase (0.1% aqueous formic or phosphoric acid) and acetonitrile, linear gradient 10% to 95% acetonitrile
Text: Die Kalibrierung wurde jeweils mit unverzweigten Alkan-2-onn (3 bis 16 Kohlenstoff Atome) mit bekannten IogP Werten durchgeführt (Bestimmung von den logP Werten über die Retentionszeiten durch lineare Interpolation zwischen zwei bestimmten Alkazionen). Die Lambda-max Werte wurden jeweils in den Maxima der Chromatographie-Signale durch UV Spektren zwischen 190nm und 400nm bestimmt.

Compound | chromatographic logP
Cc1ccccc1-c1c(Cl)nnc(C)c1-c1cccs1 [Beispiel 190] | 3.18

Same assay, conditions: HPLC on reversed-phase C 18 columns, EEC Directive 79/831 Annex V.A8; acidic aqueous mobile phase / acetonitrile, linear gradient 10% to 95% acetonitrile

Compound | chromatographic logP | logP
Cc1nnc(Cl)c(-c2c(F)cccc2F)c1-c1nccs1 [compound 105] | 2.51 | –
Cc1nnc(Cl)c(-c2c(Cl)cccc2Cl)c1-c1ccc(Cl)s1 [compound 46] | 4.44 | –
Cc1ccc(-c2c(C)nnc(Cl)c2-c2c(F)cccc2F)o1 [compound 104] | 3.26 | –
Cc1nnc(Cl)c(-c2ccc(F)cc2Cl)c1-c1ccc(Cl)s1 [compound 38] | 4.21 | –
COc1ccccc1-c1c(Cl)nnc(C)c1-c1ccc(Cl)s1 [compound 182] | 3.65 | –
Cc1nnc(Cl)c(-c2ccccc2F)c1-c1ccc(Cl)s1 [compound 118] | 3.7 | –
Cc1nnc(Cl)c(-c2ccccc2F)c1-c1cccs1 [compound 121] | 3.05 | –

The next lines start with the values.

chromatographic logP | logP | Compound
4.16 | – | Cc1nnc(Cl)c(-c2cc(Cl)ccc2F)c1-c1ccc(Cl)s1 [compound 120]
3.34 | – | Cc1nnc(Cl)c(-c2cccc(Cl)c2)c1-c1cccs1 [compound 172]
3.56 | – | Cc1nnc(Cl)c(-c2ccc(F)cc2Br)c1-c1cccs1 [compound 11]
– | 4,01 | Cc1nnc(Cl)c(-c2ccccc2Cl)c1-c1ccc(Cl)s1 [Beispiel 58]
4.01 | – | Cc1nnc(Cl)c(-c2cc(F)c(F)cc2F)c1-c1ccc(Cl)s1 [compound 86]
4.11 | – | Cc1nnc(Cl)c(-c2c(F)cc(F)cc2F)c1-c1ccc(Cl)s1 [compound 67]
3.33 | – | Cc1nnc(Cl)c(-c2c(F)cccc2Cl)c1-c1cccs1 [compound 55]
3.39 | – | Cc1nnc(Cl)c(-c2cc(F)c(F)cc2F)c1-c1cccs1 [compound 85]

Same assay, conditions: from retention times, linear interpolation between alkan-2-ones

Compound | chromatographic logP | logP
CC1(O)OC(=O)C(c2c(Cl)cccc2Cl)=C1c1cccs1 (stereo not drawn) [3-(2,6-Dichlorphenyl)-4-(2-thienyl)-5-hydroxy-5-methylfuran-2(5H)-on] | 2.57 | –
Cc1n[nH]c(=O)c(-c2cc(F)c(F)cc2F)c1-c1cccs1 [5-(2-thienyl)-4-(2,4,5-trifluorphenyl)-6-methylpyridazin-3(2H)-on] | 2.32 | –
CC1(O)OC(=O)C(c2cc(F)c(F)cc2F)=C1c1cccs1 (stereo not drawn) [3-(2,4,5-Trifluorphonyl)-4-(2-thienyl)-5-hydroxy-5-methylfuran-2(5H)-on] | 2.57 | –
Cc1n[nH]c(=O)c(-c2ccccc2F)c1-c1ccc(Cl)s1 [5-(5-Chlor-2-thienyl)-4-(2-fluorphenyl)-6-methylpyridazin-3(2H)-on] | 2.64 | –
CC1(O)OC(=O)C(c2c(F)cccc2F)=C1c1cccs1 (stereo not drawn) [3-(2,6-Difluorphenyl)4-(2-thienyl)-5-hydroxy-5-methylfuran-2(5H)-on] | 2.39 | –
CC1(O)OC(=O)C(c2ccc(F)cc2Cl)=C1c1cccs1 (stereo not drawn) [3-(2-Chlor-4-fluorphenyl)-4-(2-thienyl)-5-hydroxy-5-methylfuran-2(5H)-on] | 2.68 | –
CC1(O)OC(=O)C(c2c(F)cccc2Cl)=C1c1ccc(Cl)s1 (stereo not drawn) [3-(2-Chlor-6-fluorphenyl)-4-(5-chlor-2-thienyl)-5-hydroxy-5-methylfuran-2(5H)-on] | 3.13 | –
CC1(O)OC(=O)C(c2c(F)cccc2F)=C1c1ccncc1 (stereo not drawn) [3-(2,6-Difluorphenyl)-4-(4-pyridyl)-5-hydroxy-5-methylfuran-2(5H)-on] | 1.4 | –
CC1(O)OC(=O)C(c2ccc(F)cc2Br)=C1c1cccs1 (stereo not drawn) [3-(2-Brom-4-fluorphenyl)-4-(2-thienyl)-5-hydroxy-5-methylfuran-2(5H)-on] | 2.64 | –
CC1(O)OC(=O)C(c2cccc(Cl)c2)=C1c1cccs1 (stereo not drawn) [3-(3-Chlorphenyl)-4-(2-thienyl)-5-hydroxy-5-methylfuran-2(5H)-on] | 2.73 | –
CC1(O)OC(=O)C(c2cccc3c2OC(F)(F)O3)=C1c1ccc(Cl)s1 (stereo not drawn) [4-(5-Chlor-2-thienyl)-3-(2,2-difluor-1,3-benzodioxol-4-yl)-5-hydroxy-5-methylfuran-2(5H)-on] | 3.41 | –
CC1(O)OC(=O)C(c2cccc(Cl)c2)=C1c1ccc(Cl)s1 (stereo not drawn) [3-(3-Chlorphenyl)-4-(5-chlor-2-thienyl)-5-hydroxy-5-metylfuran-2(5H)-on] | 3.38 | –

Now from value to compound:

chromatographic logP | logP | Compound
3.24 | – | CC1(O)OC(=O)C(c2ccc(F)cc2Cl)=C1c1ccc(Cl)s1 (stereo not drawn) [3-(2-Chlor-4-fluorphenyl)-4-(5-chlor-2-thienyl)-5-hydroxy-5-methylfuran-2(5H)-on]
2.43 | – | Cc1n[nH]c(=O)c(-c2c(Cl)cccc2Cl)c1-c1cccs1 [4-(2,6-Dichlorphenyl)-5-(2-thienyl)-6-methylpyridazin-3(2H)-on]
4.01 | – | Cc1nnc(Cl)c(-c2ccccc2Cl)c1-c1ccc(Cl)s1 [Beispiel 58]
2.11 | – | Cc1ccc(-c2c(C)n[nH]c(=O)c2-c2c(Cl)cccc2Cl)nc1C [5-(5,6-Dimethyl-2-pyridyl)-4-(2,6-dichlorphenyl)-6-methylpyridazin-3(2H)-on]
2.19 | – | Cc1n[nH]c(=O)c(-c2ccccc2Cl)c1-c1cccs1 [4-(2-Chlorphenyl)-5-(2-thienyl)-6-methylpyridazin-3(2H)-on]
3.03 | – | Cc1n[nH]c(=O)c(-c2ccc(F)cc2Br)c1-c1ccc(Cl)s1 [4-(2-Brom-4-fluorphenyl)-5-(5-chlor-2-thienyl)-6-methylpyridazin-3(2H)-on]
2.88 | – | Cc1n[nH]c(=O)c(-c2cc(F)c(F)cc2F)c1-c1ccc(Cl)s1 [5-(5-Chlor-2-thienyl)-4-(2,4,5-trifluorphanyl)-6-methylpyridazin-3(2H)-on]
3.91 | – | CC1(O)OC(=O)C(c2ccccc2Cl)=C1c1ccc(Cl)s1 (stereo not drawn) [3-(2-Chlorphenyl)-4-(5-chlor-2-thienyl)-5-hydroxy-5-methylfuran-2(5H)-on]
– | 2.35 | Cc1ccc(C2=C(c3c(F)cccc3F)C(C)(O)OC2=O)o1 (stereo not drawn) [4-(2,6-Difluorphenyl)-3-(5-Methyl-2-furyl)-5-hydroxy-5-methylfuran-2(5H)-on]
3.17 | – | CC1(O)OC(=O)C(c2cc(F)c(F)cc2F)=C1c1ccc(Cl)s1 (stereo not drawn) [4.(5-Chlor-2-thienyl)-3-(2,4,5-trifluorphenyl)-5-hydroxy-5-methylfuran-2(5H)-on]
3.26 | – | CC1(O)OC(=O)C(c2c(Cl)cccc2Cl)=C1c1ccc(Cl)s1 (stereo not drawn) [4-(5-Chlor-2-thienyl)-3-(2,6-dichlorphenyl)-5-hydroxy-5-methylfuran-2(5H)-on]
2.93 | – | CC1(O)OC(=O)C(c2ccccc2F)=C1c1ccc(Cl)s1 (stereo not drawn) [4-(5-Chlor-2-thienyl)-3-(2-fluorphenyl)-5-hydroxy-5-methylfuran-2(5H)-on]
2.65 | – | Cc1ccc(C2=C(c3c(F)cccc3F)C(=O)OC2(C)O)nc1C (stereo not drawn) [3-(2,6-Difluorphenyl)-4-(5,6-Dimethyl-2-pyridyl)-5-hydroxy-5-methylfuran-2(5H)-on]
2.06 | – | Cc1n[nH]c(=O)c(-c2ccccc2F)c1-c1cccs1 [4-(2-Fluorphonyl)-5-(2-thienyl)-6-methylpyridazin-3(2H)-on]
0.93 | – | Cc1n[nH]c(=O)c(-c2c(F)cccc2F)c1-c1ccncc1 [5-(4-Pyridyl)4-(2,6-difluorphenyl)-6-methylpyridazin-3(2H)-on]
– | 2.59 | 3-(2-Methyl)-4-(2-thienyl)-5-hydroxy-5-methylfuran-2(5H)-on
1.57 | – | Cc1n[nH]c(=O)c(-c2c(F)cccc2F)c1-c1nccs1 [5-(2-Thiazolyl)-4-(2,6-difluorphenyl)-6-methylpyridazin-3(2H)-on]
